# Experimental data taken from patent US10864182B2, “Treatment of fragile X syndrome” (Healx Limited, priority 2018, dated 2020).
# “Also recorded” adds a separate entry of the source.
# Assays:
# Type in all cases: in vivo
# Fmr1 KO2 mice [1] = test: Open field (hyperactivity); conditions: 5 mg/kg by subcutaneous osmotic minipump, 15 days chronic treatment, 3 min observation
# Description: (§1) Fmr1 knockout 2 (Fmr1 KO2) mice were generated by deletion of the promoter and first exon of Fmr1. The Fmr1 KO2 it is both, protein and mRNA null. In this study we used Fmr1 KO2 and wild-type (WT) littermates generated on a C57BL/6J background and repeatedly backcrossed onto a C57BL/6J background for more than eight generations.
# There were four treatment groups per compound in the study with 10 male mice used per treatment group (all at 8 weeks of age): Group 1: Fmr1 KO2 mice treated with vehicle (Fmr1 KO2-V), Group 2: wild-type littermate mice treated with vehicle (WT-V), Group 3: Fmr1 KO2 mice treated with sulindac (Fmr1 KO-Sulindac) and Group 4: wild-type littermate mice treated with sulindac (WT-Sulindac) […]
# (§2) For experiments, all mice were tested once in the same apparatus. […] We assessed weight loss, fur loss, walking, eyes open, eye discharges and general behavior.
# The open-field apparatus was used to test hyperactivity. […] The number of squares entered by the whole body (locomotor activity) was counted. The movement of the mouse around the field was recorded with a video tracking device for 3 min (version NT4.0, Viewpoint).
# (§3) Data were analyzed by two-way analysis of variance (ANOVA) followed by post-test comparisons where appropriate using Tukey's Multiple Comparison Test. […]
# Fmr1 KO2 mice [2] = test: Nesting; conditions: 5 mg/kg by subcutaneous osmotic minipump, 15 days, listed as sulindac
# Description: as §1
# (§4) There were four treatment groups per compound in the study with 10 male mice used per treatment group (all at 8 weeks of age): Group 1: Fmr1 KO2 mice treated with vehicle (Fmr1 KO2-V), Group 2: wild-type littermate mice treated with vehicle (WT-V), Group 3: Fmr1 KO2 mice treated with sulindac (Fmr1 KO-Sulindac) and Group 4: wild-type littermate mice treated with sulindac (WT-Sulindac)
# (§5) Sulindac: 5 mg/kg by osmotic minipumps (ALZET Osmotic Pumps Cupertino, Calif., USA) implanted subcutaneously for 15 days delivery.
# as §2
# The test was performed in individual cages. […] Mice were placed individually into the nesting cages 1 hr. before the dark phase, and the results were assessed the next morning. Nest building was scored on a 5 point scale. […]
# as §3
# Fmr1 KO2 mice [3] = test: Contextual fear conditioning; conditions: 5 mg/kg by subcutaneous osmotic minipump, 15 days, KO not different from WT
# Description: as §1, §4, §5
# For experiments, all mice were tested once in the same apparatus. Prior to testing, mice were placed in the apparatus for some minutes before the experiment. The apparatus was cleaned with moist and dry tissues before testing each mouse. […] We assessed weight loss, fur loss, walking, eyes open, eye discharges and general behavior. […]
# as §3
# Fmr1 KO2 mice [4] = test: Three-chambered sociability task (social interaction); conditions: 5 mg/kg by subcutaneous osmotic minipump, 15 days
# Description: as §1, §4, §5, §2
# In the three-chambered sociability task, a subject mouse was evaluated for its exploration of a novel social stimulus (novel mouse). […] The time spent exploring the novel mice was scored as exploration ratio.
# as §3
compound,measurement,setting,value
"CC1=C(CC(=O)O)c2cc(F)ccc2/C1=C\c1ccc([S+](C)[O-])cc1 (stereo not drawn) [Sulindac, (Z)-5-fluoro-2-methyl-1-[[p-(methylsulfinyl)phenyl]methylene]-1H-indene-3-acetic acid]","hyperactivity in open field (locomotor activity, number of squares entered)",Fmr1 KO2 mice [1],fully rescuing; also recorded: normalizes hyperactivity
same,"nesting behavior (nest building score, 5 point scale)",Fmr1 KO2 mice [2],fully rescuing; also recorded: normalization in nesting behavior
same,freezing in contextual memory test (learning and memory),Fmr1 KO2 mice [3]; p=0.3968,ameliorates the Fmr1 KO deficit in learning and memory
same,freezing in contextual memory test (learning and memory),"Fmr1 KO2 mice [3]; p=0.3968, listed as sulindac",partially rescuing
same,sociability (exploration index of the novel mouse),Fmr1 KO2 mice [4],partially improved such impairment
same,sociability (exploration index of the novel mouse),Fmr1 KO2 mice [4]; listed as sulindac,partially rescuing
